The values that follow come from PubChem BioAssay AID1259407 (Chemical Carcinogenesis Research Information System (CCRIS), 2018).

This series has as its system CCRIS mutagenicity, Ames/micronucleus/aberration tests. Briefly: CCRIS mutagenicity studies.
The mark [1] stands for this setting: Test System: AMES SALMONELLA TYPHIMURIUM, Strain/Indicator: TA97, Metabolic Activation: NONE, Method: PREINCUBATION
[2] abbreviates: Test System: AMES SALMONELLA TYPHIMURIUM, Strain/Indicator: TA98, Metabolic Activation: NONE, Method: PREINCUBATION
The mark [3] stands for this setting: Test System: AMES SALMONELLA TYPHIMURIUM, Strain/Indicator: TA100, Metabolic Activation: NONE, Method: PREINCUBATION
Setting [4] is: Test System: AMES SALMONELLA TYPHIMURIUM, Strain/Indicator: TA98, Metabolic Activation: NONE, Method: STANDARD PLATE.
[5] abbreviates: Test System: AMES SALMONELLA TYPHIMURIUM, Strain/Indicator: TA1537, Metabolic Activation: NONE, Method: STANDARD PLATE.
Setting [6] is: Test System: AMES SALMONELLA TYPHIMURIUM, Strain/Indicator: TA100, Metabolic Activation: NONE, Method: STANDARD PLATE.

The source made the active and inactive calls. How the calls were made is not given here.

As to `Clc1cc2c(cc1Cl)Oc1cc(Cl)c(Cl)cc1O2`, the mutagenic call by setting is: (End Point: IN VITRO CHROMOSOMAL ABERRATIONS, Test System: CHINESE HAMSTER OVARY CELLS, Metabolic Activation: NONE) “inactive; negative”; (End Point: IN VITRO CHROMOSOMAL ABERRATIONS, Test System: CHINESE HAMSTER OVARY CELLS, Metabolic Activation: RAT, LIVER, S-9, AROCLOR 1254) “inactive; negative”; under setting [1], “inactive; negative”; (Test System: AMES SALMONELLA TYPHIMURIUM, Strain/Indicator: TA97, Metabolic Activation: RAT, LIVER, S-9, AROCLOR 1254, Method: PREINCUBATION) “inactive; negative”; under setting [2], “inactive; negative”; (Test System: AMES SALMONELLA TYPHIMURIUM, Strain/Indicator: TA98, Metabolic Activation: RAT, LIVER, S-9, AROCLOR 1254, Method: PREINCUBATION) “inactive; negative”. The mutagenic call under setting [3] is “inactive; negative”; the mutagenic call (Test System: AMES SALMONELLA TYPHIMURIUM, Strain/Indicator: TA100, Metabolic Activation: RAT, LIVER, S-9, AROCLOR 1254, Method: PREINCUBATION) was “inactive; negative”; the mutagenic call (Test System: Ames Salmonella typhimurium, Strain/Indicator: TA98, Metabolic Activation: Hamster, Liver, S-9, Aroclor 1254, Method: Preincubation) is “inactive; negative”; the mutagenic call (Test System: Ames Salmonella typhimurium, Strain/Indicator: TA98, Metabolic Activation: None, Method: Preincubation) was “inactive; negative”; the mutagenic call (Test System: Ames Salmonella typhimurium, Strain/Indicator: TA98, Metabolic Activation: Rat, Liver, S-9, Aroclor 1254, Method: Preincubation) was “inactive; negative”; the mutagenic call (Test System: Ames Salmonella typhimurium, Strain/Indicator: TA100, Metabolic Activation: Hamster, Liver, S-9, Aroclor 1254, Method: Preincubation) is “inactive; negative”. The mutagenic call (Test System: Ames Salmonella typhimurium, Strain/Indicator: TA100, Metabolic Activation: None, Method: Preincubation) was “inactive; negative”; the mutagenic call (Test System: Ames Salmonella typhimurium, Strain/Indicator: TA100, Metabolic Activation: Rat, Liver, S-9, Aroclor 1254, Method: Preincubation) is “inactive; negative”; the mutagenic call (Test System: Ames Salmonella typhimurium, Strain/Indicator: TA1535, Metabolic Activation: Hamster, Liver, S-9, Aroclor 1254, Method: Preincubation) was “inactive; negative”; the mutagenic call (Test System: Ames Salmonella typhimurium, Strain/Indicator: TA1535, Metabolic Activation: None, Method: Preincubation) is “inactive; negative”; the mutagenic call (Test System: Ames Salmonella typhimurium, Strain/Indicator: TA1535, Metabolic Activation: Rat, Liver, S-9, Aroclor 1254, Method: Preincubation) was “inactive; negative”; the mutagenic call (Test System: Ames Salmonella typhimurium, Strain/Indicator: TA1537, Metabolic Activation: Hamster, Liver, S-9, Aroclor 1254, Method: Preincubation) is “inactive; negative”. The mutagenic call is “inactive; negative” (Test System: Ames Salmonella typhimurium, Strain/Indicator: TA1537, Metabolic Activation: None, Method: Preincubation); “inactive; negative” (Test System: Ames Salmonella typhimurium, Strain/Indicator: TA1537, Metabolic Activation: Rat, Liver, S-9, Aroclor 1254, Method: Preincubation); “inactive; negative” (Test System: MOUSE LYMPHOMA, Strain/Indicator: L5178Y (TK+/TK-), Metabolic Activation: NONE, Method: SUSPENSION/PLATE); “inactive; negative” (Test System: MOUSE LYMPHOMA, Strain/Indicator: L5178Y (TK+/TK-), Metabolic Activation: RAT, LIVER, S-9, AROCLOR 1254, Method: SUSPENSION/PLATE).
For `CC(=O)/C=C/CCC(=O)/C=C/C(=O)O[C@@H](CCC(=O)/C=C/C(=O)O)CC(C)=O`, the mutagenic call (Test System: CHINESE HAMSTER V-79, Strain/Indicator: V-79 (HPRT)/6-THIOGUANINE, Metabolic Activation: NONE) is “active; positive”.
For the compound `c1ccc2c(c1)-c1ccccc1C1NC21` (configuration not stated), the mutagenic call is, setting by setting: under setting [4], “active; positive”; under setting [5], “active; positive”; (Test System: CHINESE HAMSTER V-79, Strain/Indicator: V-79/6-THIOGUANINE, Metabolic Activation: NONE, Method: STANDARD PLATE) “active; positive”.
`OCc1cc2ccc3cccc4ccc(c1)c2c34`: where the note is “Test System: AMES SALMONELLA TYPHIMURIUM, Strain/Indicator: TA98, Metabolic Activation: HUMAN, LIVER, CYTOSOL, PAPS, Method: PREINCUBATION”, the mutagenic call is “active; positive”.
In the case of `[N-]=[N+]=NC[C@@H](O)[C@H](O)[C@H](O)[C@@H](O)C(=O)O`, the mutagenic call was “inactive; negative” under setting [4] and “active; positive” under setting [6].
As for `O=[N+]([O-])C1=Cc2cc3cc4ccccc4cc3c3cccc1c23`, the mutagenic call is “active; positive” under setting [4]; “active; positive” (Test System: AMES SALMONELLA TYPHIMURIUM, Strain/Indicator: TA98, Metabolic Activation: RAT, LIVER, S-9, AROCLOR 1254, Method: STANDARD PLATE); “inactive; negative” under setting [6]; “inactive; negative” (Test System: AMES SALMONELLA TYPHIMURIUM, Strain/Indicator: TA100, Metabolic Activation: RAT, LIVER, S-9, AROCLOR 1254, Method: STANDARD PLATE); “inactive; negative” (Test System: AMES SALMONELLA TYPHIMURIUM, Strain/Indicator: TA1535, Metabolic Activation: NONE, Method: STANDARD PLATE); “inactive; negative” (Test System: AMES SALMONELLA TYPHIMURIUM, Strain/Indicator: TA1535, Metabolic Activation: RAT, LIVER, S-9, AROCLOR 1254, Method: STANDARD PLATE). The mutagenic call by setting is: under setting [5], “active; positive”; (Test System: AMES SALMONELLA TYPHIMURIUM, Strain/Indicator: TA1537, Metabolic Activation: RAT, LIVER, S-9, AROCLOR 1254, Method: STANDARD PLATE) “active; positive”; (Test System: AMES SALMONELLA TYPHIMURIUM, Strain/Indicator: TA1538, Metabolic Activation: NONE, Method: STANDARD PLATE) “active; positive”; (Test System: AMES SALMONELLA TYPHIMURIUM, Strain/Indicator: TA1538, Metabolic Activation: RAT, LIVER, S-9, AROCLOR 1254, Method: STANDARD PLATE) “inactive; negative”.
`N#CCCO`: the mutagenic call by setting is: (Test System: AMES SALMONELLA TYPHIMURIUM, Strain/Indicator: TA97, Metabolic Activation: HAMSTER, LIVER, S-9, AROCLOR 1254 (10 OR 30%), Method: PREINCUBATION) “inactive; negative”; under setting [1], “inactive; negative”; (Test System: AMES SALMONELLA TYPHIMURIUM, Strain/Indicator: TA97, Metabolic Activation: RAT, LIVER, S-9, AROCLOR 1254 (10 OR 30%), Method: PREINCUBATION) “inactive; negative”; (Test System: AMES SALMONELLA TYPHIMURIUM, Strain/Indicator: TA98, Metabolic Activation: HAMSTER, LIVER, S-9, AROCLOR 1254 (10 OR 30%), Method: PREINCUBATION) “inactive; negative”; under setting [2], “inactive; negative”; (Test System: AMES SALMONELLA TYPHIMURIUM, Strain/Indicator: TA98, Metabolic Activation: RAT, LIVER, S-9, AROCLOR 1254 (10 OR 30%), Method: PREINCUBATION) “inactive; negative”. For the same compound, the mutagenic call is “inactive; negative” (Test System: AMES SALMONELLA TYPHIMURIUM, Strain/Indicator: TA100, Metabolic Activation: HAMSTER, LIVER, S-9, AROCLOR 1254 (10 OR 30%), Method: PREINCUBATION); “inactive; negative” under setting [3]; “inactive; negative” (Test System: AMES SALMONELLA TYPHIMURIUM, Strain/Indicator: TA100, Metabolic Activation: RAT, LIVER, S-9, AROCLOR 1254 (10 OR 30%), Method: PREINCUBATION); “inactive; negative” (Test System: AMES SALMONELLA TYPHIMURIUM, Strain/Indicator: TA1535, Metabolic Activation: HAMSTER, LIVER, S-9, AROCLOR 1254 (10 OR 30%), Method: PREINCUBATION); “inactive; negative” (Test System: AMES SALMONELLA TYPHIMURIUM, Strain/Indicator: TA1535, Metabolic Activation: NONE, Method: PREINCUBATION); “inactive; negative” (Test System: AMES SALMONELLA TYPHIMURIUM, Strain/Indicator: TA1535, Metabolic Activation: RAT, LIVER, S-9, AROCLOR 1254 (10 OR 30%), Method: PREINCUBATION).
For the compound `O=C1CC(=C(Cl)Cl)C(=O)N1`, the mutagenic call under setting [6] was “active; positive”.
